Data from US5856303A, “Peptide, a bronchus-expanding agent, and a blood-flow-improving agent” (Itoham Foods, Inc., priority 1995, dated 1999).
Ends that are not written are not given here.

How the values were obtained:
bronchial smooth muscle = experiment: Bronchus-expanding action: relaxation of carbachol-contracted guinea pig tracheal chain in organ bath; type: cell-based, guinea pigs; conditions: 0.1 μmol/l carbachol-contracted trachea
Excerpt: Purified peptides 1 to 15 obtained in Examples 1 to 15 were examined for their bronchus-expanding action in the following manner and compared with that of VIP and PACAP.
Male guinea pigs each weighing 450 to 500 g were cut at the jugular veins to open the chests, and immediately the tracheae were immediately removed. Their tracheae were immediately placed in a Krebs solution and cut into loops and then formed into a chain by linking the cartilage parts with one another via a steel string. Then, the cartilage parts in the opposite side to the smooth muscular parts were cut such that the smooth muscular parts were attached to one another. The resulting sample was placed in an about 10-ml isothermic organ bath and perpendicularly suspended. The lower part was fixed and the upper part was connected to a grass force transducer with a load of 1.4 g. A gas of 94% oxygen and 6% carbon dioxide was sufficiently blown into this sample while a Krebs solution containing 0.1μ mol/l carbachol was dropped to it at a rate of 0.33 ml/min. to determine relaxation action. Because the relaxation reaction occurs depending on the content of a test sample in this drop solution, this can be used to compare the relaxation action of VIP and PACAP and that of the peptides of the invention on the bronchial smooth muscle.
A solution of each of […], PACAP and the peptides of the invention was prepared in a concentration as high as 100-fold than the final concentration so that its concentration in the organ bath could be adjusted. 30 minutes after the carbachol-containing Krebs solution was dropped, 100 μl of the sample solution was dropped.
It was assumed that the degree of contraction of the smooth muscle is 0 in the absence of carbachol and the degree is 100 in the presence of carbachol. Minimum contraction degree A (i.e. maximum relaxation value) in the presence of the sample was determined, and maximum relaxation degree B was calculated as follows:
Maximum relaxation degree B (%)=100-A
The time required to reach half of the maximum relaxation value (referred to hereinafter as "half-time T") after the addition of the sample was determined.
A change in the relaxation degree of the bronchial smooth muscle with time was determined using each peptide at 3 dosages of 0.3 μM, 1 μM, and 3 μM respectively. The results are shown in the drawings: PACAP in FIG. 1; peptide 5 obtained in Example 5, in FIG. 2; VIP in FIG. 3; and peptide 11 obtained in Example 11, in FIG. 4. The maximum relaxation degree B at a dosage of 3 μM is 75% for peptide 5 and 80% for peptide 11, and half-time T is 360 minutes or more in both the cases.

Wistar male rats = experiment: Blood-flow increasing action in anesthetized rats (femoral artery blood flow, carotid blood pressure); type: in vivo; conditions: 100 pmol/kg intraarterially, right femoral artery
Protocol: Purified peptides 1 to 15 obtained in Examples 1 to 15 were examined for their blood-flow increasing action and compared with those of VIP and PACAP. Wistar male rats each weighing 220 to 250 g were anesthetized by intraperitoneal administration of pentobarbital (25 mg/kg) and fixed on their back. An arterial canula was inserted into the carotid and then connected to a blood-pressure transducer (DX-300, Nippon Koden, Japan) via a doom kit (SCK-512, Nippon Koden) filled with heparin-containing physiological saline (10 U/ml) to measure blood pressure with a strain blood-pressure amplifier (AP-601G, Nippon Koden). Further, a blood-flow measurement probe (FR-030T, Nippon Koden) was attached to the right femoral artery and then connected to an electromagnetic blood-flow meter (MFV-3200, Nippon Koden) to measure blood flow. The dosage of each peptide intraarterially administrated was 100 pmol/kg.

Substance: vasoactive intestinal peptide [VIP]
- Half-time T (time required to reach half of the maximum relaxation value) (bronchial smooth muscle; 0.3 μM): 130 min
- Maximum relaxation degree B (bronchial smooth muscle; 0.3 μM): 45%
- Half-time T (time required to reach half of the maximum relaxation value) (bronchial smooth muscle; 1 μM): 150 min
- Maximum relaxation degree B (bronchial smooth muscle; 1 μM): 80%
- Half-time T (time required to reach half of the maximum relaxation value) (bronchial smooth muscle; 3 μM): 240 min
- Maximum relaxation degree B (bronchial smooth muscle; 3 μM): 85%
- Blood Flow (increase in blood flow) (Wistar male rats): 10.18 ± 3.38 mL/min

Substance: pituitary adenylate cyclase activating polypeptide (HSDGIFTDSYSRYRKQMAVKKYLAAVLGKRYKQRVKNK; ends and bridges not checked; UniProt P16613 132-169, looked up) [PACAP, structurally determined peptide consisting of 38 amino acid residues, isolated from sheep hypothalamus]
- Half-time T (time required to reach half of the maximum relaxation value) (bronchial smooth muscle; 0.3 μM): 60 min
- Maximum relaxation degree B (bronchial smooth muscle; 0.3 μM): 40%
- Half-time T (time required to reach half of the maximum relaxation value) (bronchial smooth muscle; 1 μM): 60 min
- Maximum relaxation degree B (bronchial smooth muscle; 1 μM): 90%
- Half-time T (time required to reach half of the maximum relaxation value) (bronchial smooth muscle; 3 μM): 100 min
- Maximum relaxation degree B (bronchial smooth muscle; 3 μM): 90%
- Blood Flow (increase in blood flow) (Wistar male rats): 16.04 ± 5.92 mL/min
